# Experimental data published in US20190374590A1, “USE OF CORDYCEPS MILITARIS EXTRACT FOR TREATMENT OF RENAL DISEASE” (Nan Pao Resins Chemical Co., Ltd., priority 2018, published 2019).
# What was measured:
# [1] = test system: a-smooth muscle actin protein level in AB8/13 human podocytes; test: Western blotting of α-smooth muscle actin protein level in differentiated AB8/13 human podocytes; format: cell-based; conditions: FIG. 2; substance alone (without TGF-β1), compared to dimethyl sulfoxide; 6 days incubation
# Procedure: (§1) Firstly, AB8/13 human podocytes were incubated in a 33[…] incubator containing 5% carbon dioxide until they grew to a confluence of 80%. The cells were transferred to a 37.5[…] incubator containing 5% carbon dioxide to be incubated for 14 days so that the cells were differentiated. After which, the differentiated cells were incubated with culture medium containing various substances for 6 days. Finally, total protein of the differentiated cells treated with various substances was extracted for Western blotting assay.
# (§2) As stated in Diabetes, 2011 Jun; 60(6): 1779-1788, transforming growth factor-β1 (TGF-β1) is greatly expressed in the renal tissue of a diabetic nephropathy patient. This paper further has reported that transforming growth factor-β1 can dedifferentiate differentiated podocytes and induce the disappearance of pseudopods. As stated in Cell Tissue Res. 2012 Jan; 347(1): 141-54, transforming growth factor-β1 participates in renal fibrosis, renal parenchyma degeneration and loss of function associated with chronic kidney disease. For the above reasons, podocytes treated with transforming growth factor-β1 can be used as a cell culture model for renal disease.
# [2] = test system: nephrin protein level in AB8/13 human podocytes; test: Western blotting of nephrin protein level in differentiated AB8/13 human podocytes; format: cell-based; conditions: FIG. 1; substance alone, compared to dimethyl sulfoxide; 6 days incubation
# Procedure: as §1, §2
substance,measurement,setting,value
transforming growth factor-β1,a-smooth muscle actin protein level,[1],upregulate
same,nephrin protein level,[2],downregulate
